Data from patent US20120238615A1, “Alpha adrenergic receptor modulators” (Allergan, Inc., priority 2009, published 2012).
Values belong to the compound of their own block, whether it stands above or below them.

Molecular target: T1, alpha-2C (Homo sapiens, UniProt P18825)
T1 construct: expressed in transfected cells
T1 sequence (P18825 1-462): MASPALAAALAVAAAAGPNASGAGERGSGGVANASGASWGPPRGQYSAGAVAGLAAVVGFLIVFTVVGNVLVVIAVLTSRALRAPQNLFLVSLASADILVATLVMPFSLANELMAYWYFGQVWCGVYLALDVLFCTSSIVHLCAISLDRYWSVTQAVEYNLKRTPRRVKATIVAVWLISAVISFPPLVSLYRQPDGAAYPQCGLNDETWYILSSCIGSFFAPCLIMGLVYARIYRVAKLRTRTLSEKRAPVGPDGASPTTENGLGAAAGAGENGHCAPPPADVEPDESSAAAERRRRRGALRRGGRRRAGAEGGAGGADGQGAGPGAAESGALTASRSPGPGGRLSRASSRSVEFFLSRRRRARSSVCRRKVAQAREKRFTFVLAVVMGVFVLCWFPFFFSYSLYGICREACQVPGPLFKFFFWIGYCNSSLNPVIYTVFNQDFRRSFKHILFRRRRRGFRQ
Test: FLIPR calcium assay for alpha adrenergic activity
Type: cell-based
Conditions: cells expressing alpha-2C and G-protein (Gqi5 or G16); for EC50: fluo-4 calcium signal, agonist, read-out: Potency (nM) Alpha 2C (EC50); for efficacy Alpha 2C (relative efficacy compared to a standard full agonist, in parentheses): relative to norepinephrine
Description: Compounds described herein were synthesized and tested for alpha adrenergic activity using a Fluorometric Imaging plate Reader (FLIPR) assay (Princen et al., 2003, Cytometry Part A. 51, pp. 35-45). Cells expressing the receptor of interest (alpha-2C) and a G-protein (Gqi5 or G16) are loaded with fluo-4, a calcium sensitive dye. After removal of excess dye by washing, the cells are placed in the FLIPR TETRA instrument. Baseline fluorescence readings are taken prior to addition of the compounds. Agonists will trigger the receptor to interact with the G-protein, leading to an increase in intracellular calcium. The increase in intracellular calcium causes an increase in the fluorescence of the cells, due to the presence of fluo-4. This fluorescence increase is recorded by the FLIPR TETRA. After the calcium transient signal has decreased towards baseline, the standard agonist norepinephrine is added. If the compound is an antagonist, an initial calcium signal will not be generated and the antagonist will prevent the generation of a calcium signal from norepinephrine. The level of fluorescence is compared to that of norepinephrine, and the EC50 of the compound determined by curve fitting. […] The compounds described herein activate alpha adrenergic receptors.

SMILES: COc1cccc(NC2=NCCC2)c1Br [Compound 7, N-(2-bromo-3-methoxyphenyl)-3,4-dihydro-2H-pyrrol-5-amine]
- EC50: 32 nM
- efficacy Alpha 2C (relative efficacy compared to a standard full agonist, in parentheses): (1)

SMILES: Fc1c(Cl)cccc1NC1=NCCC1 [Compound 6, N-(3-chloro-2-fluorophenyl)-3,4-dihydro-2H-pyrrol-5-amine]
- EC50: 26 nM
- efficacy Alpha 2C (relative efficacy compared to a standard full agonist, in parentheses): (1)

SMILES: COc1c(C)cccc1NC1=NCCC1 [Compound 5, N-(2-methoxy-3-methylphenyl)-3,4-dihydro-2H-pyrrol-5-amine]
- EC50: 243 nM
- efficacy Alpha 2C (relative efficacy compared to a standard full agonist, in parentheses): (1)

SMILES: COc1cccc(NC2=NCCC2)c1C [Compound 8, N-(3-methoxy-2-methylphenyl)-3,4-dihydro-2H-pyrrol-5-amine]
- EC50: 186 nM
- efficacy Alpha 2C (relative efficacy compared to a standard full agonist, in parentheses): (1)

SMILES: Cc1c(Cl)cccc1NC1=NCCC1 [Compound 3, N-(3-chloro-2-methylphenyl)-3,4-dihydro-2H-pyrrol-5-amine]
- EC50: 71 nM
- efficacy Alpha 2C (relative efficacy compared to a standard full agonist, in parentheses): (1)

SMILES: COc1c(Cl)cccc1NC1=NCCC1 [Compound 2, N-(3-chloro-2-methoxyphenyl)-3,4-dihydro-2H-pyrrol-5-amine]
- EC50: 975 nM
- efficacy Alpha 2C (relative efficacy compared to a standard full agonist, in parentheses): (1)

SMILES: Cc1cccc(NC2=NCCC2)c1Br [Compound 1, N-(2-bromo-3-methyl-phenyl)-3,4-dihydro-2H-pyrrol-5-amine]
- EC50: 663 nM
- efficacy Alpha 2C (relative efficacy compared to a standard full agonist, in parentheses): (1)

SMILES: Cc1cccc(NC2=NCCC2)c1Cl [Compound 4, N-(2-chloro-3-methylphenyl)-3,4-dihydro-2H-pyrrol-5-amine]
- EC50: 635 nM
- efficacy Alpha 2C (relative efficacy compared to a standard full agonist, in parentheses): (1)

More lines, now with the values ahead:

- EC50: 796 nM
- efficacy Alpha 2C (relative efficacy compared to a standard full agonist, in parentheses): (1)
SMILES: FC(F)(F)c1ccccc1NC1=NCCC1 [Compound 14, N-[2-(trifluoromethyl)phenyl]-3,4-dihydro-2H-pyrrol-5-amine]

- EC50: 756 nM
- efficacy Alpha 2C (relative efficacy compared to a standard full agonist, in parentheses): (1)
SMILES: Cc1c(F)cccc1NC1=NCCC1 [Compound 9, N-(3-fluoro-2-methylphenyl)-3,4-dihydro-2H-pyrrol-5-amine]

- EC50: 743 nM
- efficacy Alpha 2C (relative efficacy compared to a standard full agonist, in parentheses): (1)
SMILES: Cc1ccccc1NC1=NCCC1 [Compound 13, N-(2-methylphenyl)-3,4-dihydro-2H-pyrrol-5-amine]

- EC50: 348 nM
- efficacy Alpha 2C (relative efficacy compared to a standard full agonist, in parentheses): (1)
SMILES: Cc1cccc(C)c1NC1=NCCC1 [Compound 15, N-(2,6-dimethylphenyl)-3,4-dihydro-2H-pyrrol-5-amine]

- EC50: 288 nM
- efficacy Alpha 2C (relative efficacy compared to a standard full agonist, in parentheses): (1)
SMILES: Cc1c(Br)cccc1NC1=NCCC1 [Compound 10, N-(3-bromo-2-methylphenyl)-3,4-dihydro-2H-pyrrol-5-amine]

- EC50: 118 nM
- efficacy Alpha 2C (relative efficacy compared to a standard full agonist, in parentheses): (1)
SMILES: Cc1cccc(NC2=NCCC2)c1C [Compound 16, N-(2,3-dimethylphenyl)-3,4-dihydro-2H-pyrrol-5-amine]

- EC50: 44 nM
- efficacy Alpha 2C (relative efficacy compared to a standard full agonist, in parentheses): (1)
SMILES: Clc1cccc(Cl)c1NC1=NCCC1 [Compound 12, N-(2,6-dichlorophenyl)-3,4-dihydro-2H-pyrrol-5-amine]

- EC50: 709 nM
- efficacy Alpha 2C (relative efficacy compared to a standard full agonist, in parentheses): (1)
SMILES: Clc1ccccc1NC1=NCCC1 [Compound 11, N-(2-chlorophenyl)-3,4-dihydro-2H-pyrrol-5-amine]
